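1) Cells in 96-well plates. 2) Compound, 48 h, 5 concentrations. 3) Linear interpolation between surrounding doses. 4) Unreached endpoint = highest concentration. Abbreviation: GI50, concentration required for 50% inhibition of growth. TGI is the concentration that stops growth completely.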

What all share (assay): inhibition of tumour cell growth, NCI panel, 48 h
In test [1] the test system is KM12 colon.
The test system of test [2] is NCI-H522 lung.
Test [3] has as its system MDA-MB-231 breast.
In test [4] the test system is HS 578T breast.
Test [5] deals with HCC-2998 colon.
Test [6] concerns OVCAR-3 ovarian.
Test [7] deals with SK-MEL-5 melanoma.
For test [8], the system named is CCRF-CEM leukemia.
For test [9], the system named is M14 melanoma.
For test [10], the system named is HT29 colon.

Take `O=C1c2cc3c(cc2-c2c1c1cc(F)c(F)cc1c(=O)n2C[C@H](O)CO)OCO3`: the GI50 in test [1] was 0.123 µM; in test [2], 0.0232 µM; in test [3], 0.378 µM; in test [4] it was 0.939 µM; in test [5], 0.14 µM; in [6], 0.224 µM. Also, the values for the GI50 in [7] and in test [8] were 0.0307 µM and 0.0349 µM, respectively. The TGI in test [1] was more than 100 µM; in [2], 0.48 µM; in [3], 3.18 µM; in [4], more than 100 µM; in [5] it was 11.2 µM; in test [6], 0.753 µM. Further, the TGI in [7] was 0.116 µM; in [8], more than 100 µM.

On to `CC(C)NC(=O)OCc1c(COC(=O)NC(C)C)n(C)c2c1ccc1cc(Cl)c(Cl)cc12`, for which the TGI was found to be 29.2 µM in test [9]; 13.1 µM in [2]; 25.3 µM in test [3]; 68.9 µM in test [4]; 31.1 µM in test [6]; 30.1 µM in test [7]. Further, the TGI in [8] was more than 100 µM; in [10], 29.3 µM.

`CCc1ccc(OCc2ccccc2C(=O)Nc2ccc3nc(C)cc(N)c3c2)cc1`: the GI50 is 0.846 µM in test [3]; 1.79 µM in [4]; 1.64 µM in [5]; 1.62 µM in test [6]; 1.54 µM in test [7]. Besides, the TGI in test [3] was determined as 2.25 µM; in test [4], 4.38 µM; in test [5], 3.24 µM; in test [6], 3.04 µM; in [7], 2.91 µM.

Turning to `Cn1c(=O)c2[nH]c(Nc3cccc(Cl)c3)nc2n(C)c1=O`, the TGI in test [9], in test [1], in test [3], in test [5], in test [7] and in test [8] was more than 10 µM in each case. Besides, the TGI in test [10] was more than 10 µM.

With `CC1=[N+]([O-])C2(CCCC2)N(O)C1(C)C`, the TGI in test [9], in [1], in [3], in test [4], in [5] and in test [6] was more than 100 µM throughout. Besides, the TGI in [7] and in test [10] was more than 100 µM in each case.

Take `CCOC(=O)c1c(-c2ccc(OC)cc2)c(C#N)c(=S)n(C2OC(CO)C(O)C(O)C2O)c1C` (stereo not given): the TGI in test [9], in test [1], in test [2], in [3], in [5] and in test [6] was more than 100 µM each time. Besides, the TGI in [7], in test [8] and in [10] was more than 100 µM in each case.

With `COc1ccc(C(=C2C(=O)OC(=O)C2=C(C)C)c2ccc(OC)cc2)cc1`, the TGI in [9] is more than 100 µM; in test [1], more than 100 µM; in test [2], 55.7 µM; in [3] it was more than 100 µM; in [4], more than 100 µM; in [5], more than 100 µM. Also, the values for the TGI in test [6], in test [7] and in test [10] were 47.5 µM, more than 100 µM and more than 100 µM, respectively.

`CSc1ncnc2c1cnn2Cc1cn(COCC(O)CO)nn1` (stereo not given): the TGI in test [9] was more than 100 µM; in test [1], more than 100 µM; in test [2], 44.6 µM; in [3] it was more than 100 µM; in [5], more than 100 µM; in test [6], more than 100 µM. Besides, the TGI in test [7], in [8] and in test [10] was more than 100 µM throughout.

`COc1ccc(CCn2ccc(=O)c(O)c2C)cc1OC`: the TGI is 36.7 µM in test [9]; more than 100 µM in [1]; 6.2 µM in test [3]; 0.0907 µM in test [4]; 41.8 µM in test [7]; 77.4 µM in test [10].

As to `CN1C2CCC1C(CO)C(=O)C2` (stereo not given), the TGI is more than 100 µM in test [1]; 34.2 µM in test [2]; more than 100 µM in [3]; more than 100 µM in test [4]; more than 100 µM in test [5]; more than 100 µM in test [6]. For the same molecule, the TGI in test [7] was more than 100 µM; in test [8] it was 27.4 µM.

With `CCC1(c2ccc(OC)c(OC)c2)CCN2C(=O)C(O)CC21` (stereo not given), the TGI in [9], in test [1], in test [2], in test [3], in test [5] and in [6] was more than 100 µM each time. The TGI in test [7], in test [8] and in test [10] was more than 100 µM in each case.

For `CCc1nc2c([nH]1)C(=O)c1ccccc1C2=O`, the TGI in test [9] was more than 100 µM; in test [1], more than 100 µM; in test [2], more than 100 µM; in [5], more than 100 µM; in test [6], 61.7 µM; in [8], more than 100 µM. The molecule also showed a TGI in test [10] of more than 100 µM.

In the case of `Cc1ccc(S(=O)(=O)N2CCc3cc(O)c([N+](=O)[O-])cc32)cc1`, the TGI in test [9], in test [1], in [2], in [3], in [4] and in test [7] was more than 100 µM throughout. The TGI in test [8] is more than 100 µM.

For the molecule `O/N=C/[C@H]1COC2(CCCCC2)O1`, the TGI in test [9], in [1], in [3], in test [4], in [6] and in [7] was more than 100 µM in each case. Besides, the TGI in [8] and in test [10] was more than 100 µM in each case.

Consider `CC(=O)Nc1ccc2c(c1)nc1c3ccccc3ccn21`, for which the TGI in test [9], in [1], in [2], in test [3], in [4] and in test [7] was more than 100 µM throughout. Besides, the TGI in [8] and in test [10] was more than 100 µM in each case.

With `O=C1CN(c2ccccc2)C(=O)C1C(=O)Nc1ccc(Cl)c(Cl)c1` (stereo not given), the TGI in test [9] is 12.6 µM; in [2], 6.48 µM; in [6], 12.6 µM; in [7], 13.2 µM; in test [8], more than 100 µM; in test [10] it was 17.2 µM.

The record behind these values is PubChem BioAssay (NCI).
